Tests used:
[1] = tested on: VCaP cells; assay: Cell proliferation assay (CellTiter-Glo, 5-day exposure), VCaP; assay type: cell-based; settings: 4000 cells/well, Th-227 labelled at 375 kBq/nmol, mean of 1 to 6 experiments
Procedure: (§1) Inhibition of cell proliferation of Thorium-227 labeled PMSA SMOL ligands was tested different prostate cancer cell lines, namely 22Rv1, VCaP, C4-2 (all from ATCC, Manassas, Va., USA) and LNCaP (DMSZ, Braunschweig). Cells were seeded using the following conditions in 384 well plates (Corning) in 30 μl of growth media at 4000 cells/well for VCaP cells and 1000 cells/well for 22Rv1, C4-2 and LNCaP cells.
(§2) Cells were cultivated an incubator at 37° C. and 5% C02 over night. […] In sister plates cell viability at treatment start (d=0) was determined using CellTiter-Glo® assay (CTG, Promega, Madison, Wis., USA), by adding 30 μl per well CTG solution, incubation for 10 min and reading of Luminescence in a PheraStarFSX instrument (BMG Labtech). After a 5-day exposure in the presenced of test compounds, cell viability of treated or untreated control cells was determined again using CellTiter-Glo® assay (Promega, Madison, Wis., USA). […] The DRC software is a Biobook Spreadsheet that was developed by Bayer AG and Bayer Business Services on the IDBS E-Workbook Suite platform (IDBS: ID Business Solutions Ltd., Guildford, UK).

[2] = tested on: C4-2 cells; assay: Cell proliferation assay (CellTiter-Glo, 5-day exposure), C4-2; assay type: cell-based; settings: C4-2, 1000 cells/well, Th-227 labelled at 375 kBq/nmol, mean of 1 to 6 experiments
Procedure: as §1, §2

[3] = tested on: 22Rv1 cells; assay: Cell proliferation assay (CellTiter-Glo, 5-day exposure), 22Rv1; assay type: cell-based; settings: 22Rv1, 1000 cells/well, Th-227 labelled at 375 kBq/nmol, mean of 1 to 6 experiments
Procedure: as §1, §2

[4] = tested on: LNCaP human prostate cancer cells; assay: LNCaP xenograft efficacy study (T/C tumor area); assay type: in vivo, SCID mice
Procedure: (§3) SCID mice were randomly assigned to experimental groups, ten animals per group (efficacy) or n=3-5 per time point of biodistribution study. At the initiation of the study, a testosterone pellet was subcutaneously transplanted, the animals were shaved, tattooed and each cage was labeled with the cage number, study number and number of animals per cage.
(§4) LNCaP human prostate cancer cells were cultured as described according to the supplier's protocols. Cells were harvested for transplantation in a subconfluent (70%) state. Animals were injected with 5×10^6 LNCaP cells suspended in 100% Matrigel subcutaneously into the flank of the mice.
Efficacy study: When tumors reached a predetermined size in mice of 35-50 mm^2 animals were randomized into treatment and control groups (n=10 animals/group) and treatment with the defined radioactive dose was started. The i.v. application volume was 100 μl/mice.
Tumor response was assessed by determination of the tumor area (product of the longest diameter and its perpendicular) using a caliper. The animal body weight was monitored as a measure for treatment-related toxicity. Measurement of tumor area and body weight was performed two to three times weekly.
Animals were sacrificed when showing signs of toxicity (>20% body weight loss) or when tumors reached a size of approximately 200 mm^2.
Tumor growth inhibition is presented as T/C ratio (Treatment/Control) calculated with tumor areas when the vehicle control group had to be closed.

[5] = Biodistribution study in LNCaP tumor-bearing mice (Th227 counted in organs); assay type: in vivo, SCID mice; settings: 500 kBq/kg; for Th-227 in Blood / Th-227 in Femur bone / Th-227 in Kidneys / Th-227 in Liver / Th-227 in Spleen / Th-227 in Tumor / Th-227 in salivary glands: study b3004
Procedure: as §3, §4
Biodistribution study: When tumors reached a predetermined size in mice of ˜50 mm^2 animals were randomized into groups (n=3 animals/time point) and the radioactive compound was once applied intravenously. The i.v. application volume was 100 μl/mice.
At the predetermined time point, n=3 animals were sacrificed, the organs removed, weight and measured in a Germanium detector to count the Th227 in the sample.

[6] = Example IV, day 36 after start of therapy, once 1 MBq/kg
[7] = comparison of % injected dose per gram tissue

Cc1cc(C(=O)NCCN(CCCN(CCNC(=O)c2cc(C)n(CC(=O)O)c(=O)c2[O-])CCNC(=O)c2cc(C)n(CC(=O)NCC3CCC(C(=O)NC(Cc4ccc5ccccc5c4)C(=O)NCCCCC(NC(=O)NC(CCC(=O)O)C(=O)O)C(=O)O)CC3)c(=O)c2[O-])CCNC(=O)c2cc(C)n(CC(=O)NCC3CCC(C(=O)NC(Cc4ccc5ccccc5c4)C(=O)NCCCCC(NC(=O)NC(CCC(=O)O)C(=O)O)C(=O)O)CC3)c(=O)c2[O-])c([O-])c(=O)n1CC(=O)O.[227Th+4] (centres unmarked) [1-C dimer-227Th]
Proliferation assay on cancer cell lines by TTCs Default Pivot #3 IC50 [kBq/mL] VCap 4000cells 375kBq/nmol (mean) [1]: 1.55 kBq/mL
Proliferation assay on cancer cell lines by TTCs Default Pivot #3 IC50 [kBq/mL] C4-2 1000cells 375kBq/nmol (mean) [2]: 1.12 kBq/mL
Proliferation assay on cancer cell lines by TTCs Default Pivot #3 IC50 [kBq/mL] 22Rv1 1000cells 375kBq/nmol (mean) [3]: 1.04 kBq/mL
T/Carea ([4]; Example II, day 33 after start of therapy, 375 kBq/kg weekly for 5 weeks): 0.60
T/Carea ([4]; Example II, day 33 after start of therapy, 750 kBq/kg weekly for 5 weeks): 0.34
T/Carea [4, 6]: 0.48
Accumulation in the tumor (in words) [5, 7]: much higher accumulation in the tumor
Background in blood, liver and spleen (in words) [5, 7]: lower background compared to 1-F-227Th
Th-227 in Blood ([5]; 1 h): 0.90 % ID Th-227/g organ
Th-227 in Femur bone ([5]; 1 h): 1.39 % ID Th-227/g organ
Th-227 in Kidneys ([5]; 1 h): 120.74 % ID Th-227/g organ
Th-227 in Liver ([5]; 1 h): 1.49 % ID Th-227/g organ
Th-227 in Spleen ([5]; 1 h): 2.33 % ID Th-227/g organ
Th-227 in Tumor ([5]; 1 h): 19.99 % ID Th-227/g organ
Th-227 in salivary glands ([5]; 1 h): 5.02 % ID Th-227/g organ
Th-227 in Blood ([5]; 24 h): 0.07 % ID Th-227/g organ
Th-227 in Femur bone ([5]; 24 h): 1.65 % ID Th-227/g organ
Th-227 in Kidneys ([5]; 24 h): 102.45 % ID Th-227/g organ
Th-227 in Liver ([5]; 24 h): 1.34 % ID Th-227/g organ
Th-227 in Spleen ([5]; 24 h): 1.50 % ID Th-227/g organ
Th-227 in Tumor ([5]; 24 h): 14.49 % ID Th-227/g organ
Th-227 in salivary glands ([5]; 24 h): 1.39 % ID Th-227/g organ
Th-227 in Blood ([5]; 72 h): 0.01 % ID Th-227/g organ
Th-227 in Femur bone ([5]; 72 h): 1.25 % ID Th-227/g organ
Th-227 in Kidneys ([5]; 72 h): 2.10 % ID Th-227/g organ
Th-227 in Liver ([5]; 72 h): 1.02 % ID Th-227/g organ
Th-227 in Spleen ([5]; 72 h): 0.76 % ID Th-227/g organ
Th-227 in Tumor ([5]; 72 h): 8.99 % ID Th-227/g organ
Th-227 in salivary glands ([5]; 72 h): 0.77 % ID Th-227/g organ
Th-227 in Blood ([5]; 168 h): 0.01 % ID Th-227/g organ
Th-227 in Femur bone ([5]; 168 h): 1.76 % ID Th-227/g organ
Th-227 in Kidneys ([5]; 168 h): 17.42 % ID Th-227/g organ
Th-227 in Liver ([5]; 168 h): 1.28 % ID Th-227/g organ
Th-227 in Spleen ([5]; 168 h): 1.24 % ID Th-227/g organ
Th-227 in Tumor ([5]; 168 h): 8.68 % ID Th-227/g organ
Th-227 in salivary glands ([5]; 168 h): 1.17 % ID Th-227/g organ
Th-227 in Blood ([5]; 336 h): 0.00 % ID Th-227/g organ
Th-227 in Femur bone ([5]; 336 h): 1.55 % ID Th-227/g organ
Th-227 in Kidneys ([5]; 336 h): 5.40 % ID Th-227/g organ
Th-227 in Liver ([5]; 336 h): 1.06 % ID Th-227/g organ
Th-227 in Spleen ([5]; 336 h): 0.73 % ID Th-227/g organ
Th-227 in Tumor ([5]; 336 h): 2.85 % ID Th-227/g organ
Th-227 in salivary glands ([5]; 336 h): 1.20 % ID Th-227/g organ

Cc1cc(C(=O)NCCN(CCCN(CCNC(=O)c2cc(C)n(CC(=O)NCC3CCC(C(=O)NC(Cc4cnc5ccccc5c4)C(=O)NCCCCC(NC(=O)NC(CCC(=O)O)C(=O)O)C(=O)O)CC3)c(=O)c2[O-])CCNC(=O)c2cc(C)n(CC(=O)NCC3CCC(C(=O)NC(Cc4cnc5ccccc5c4)C(=O)NCCCCC(NC(=O)NC(CCC(=O)O)C(=O)O)C(=O)O)CC3)c(=O)c2[O-])CCNC(=O)c2cc(C)n(CC(=O)NCC3CCC(C(=O)NC(Cc4cnc5ccccc5c4)C(=O)NCCCCC(NC(=O)NC(CCC(=O)O)C(=O)O)C(=O)O)CC3)c(=O)c2[O-])c([O-])c(=O)n1CC(=O)O.[227Th+4] (centres unmarked) [Example 22-C trimer-227Th]
Proliferation assay on cancer cell lines by TTCs Default Pivot #3 IC50 [kBq/mL] VCap 4000cells 375kBq/nmol (mean) [1]: 2.62 kBq/mL
Proliferation assay on cancer cell lines by TTCs Default Pivot #3 IC50 [kBq/mL] C4-2 1000cells 375kBq/nmol (mean) [2]: 1.82 kBq/mL
Proliferation assay on cancer cell lines by TTCs Default Pivot #3 IC50 [kBq/mL] 22Rv1 1000cells 375kBq/nmol (mean) [3]: 0.84 kBq/mL
T/Carea [4, 6]: 0.64

O=C([O-])CN1CCN(CC(=O)[O-])CCN(CC(=O)NCc2ccc(C(=O)N[C@@H](Cc3ccc4ccccc4c3)C(=O)NCCCC[C@H](NC(=O)N[C@@H](CCC(=O)O)C(=O)O)C(=O)O)cn2)CCN(CC(=O)[O-])CC1.[227Th+4] [Example 26-B-227Th, [^227Th]Thorium (3S,10S,14S)-3-[(naphthalen-2-yl)methyl]-1,4,12-trioxo-1-{6-[(2-{4,7,10-tris[(carboxy-kappaO)methyl]-1,4,7,10-tetraazacyclododecan-1-yl-kappa^4N^1,N^4,N^7,N^10}acetamido)methyl]pyridin-3-yl}-2,5,11,13-tetraazahexadecane-10,14,16-tricarboxylate]
Proliferation assay on cancer cell lines by TTCs Default Pivot #3 IC50 [kBq/mL] VCap 4000cells 375kBq/nmol (mean) [1]: 1.15 kBq/mL
Proliferation assay on cancer cell lines by TTCs Default Pivot #3 IC50 [kBq/mL] C4-2 1000cells 375kBq/nmol (mean) [2]: 0.12 kBq/mL
Proliferation assay on cancer cell lines by TTCs Default Pivot #3 IC50 [kBq/mL] 22Rv1 1000cells 375kBq/nmol (mean) [3]: 0.87 kBq/mL

O=C([O-])CN1CCN(CC(=O)[O-])CCN(CC(=O)NCc2cccc(C(=O)N[C@@H](Cc3ccc4ccccc4c3)C(=O)NCCCC[C@H](NC(=O)N[C@@H](CCC(=O)O)C(=O)O)C(=O)O)c2)CCN(CC(=O)[O-])CC1.[227Th+4] [Example 27-B-227Th, [^227Th]Thorium (3S,10S,14S)-3-[(naphthalen-2-yl)methyl]-1,4,12-trioxo-1-{3-[(2-{4,7,10-tris[(carboxy-kappaO)methyl]-1,4,7,10-tetraazacyclododecan-1-yl-kappa^4N^1,N^4,N^7,N^10}acetamido)methyl]phenyl}-2,5,11,13-tetraazahexadecane-10,14,16-tricarboxylate]
Proliferation assay on cancer cell lines by TTCs Default Pivot #3 IC50 [kBq/mL] VCap 4000cells 375kBq/nmol (mean) [1]: 0.73 kBq/mL
Proliferation assay on cancer cell lines by TTCs Default Pivot #3 IC50 [kBq/mL] C4-2 1000cells 375kBq/nmol (mean) [2]: 0.08 kBq/mL
Proliferation assay on cancer cell lines by TTCs Default Pivot #3 IC50 [kBq/mL] 22Rv1 1000cells 375kBq/nmol (mean) [3]: 0.65 kBq/mL

O=C([O-])CN1CCN(CC(=O)[O-])CCN(CC(=O)Nc2ccc(-c3ccn(CC(=O)N[C@@H](Cc4ccc5ccccc5c4)C(=O)NCCCC[C@H](NC(=O)N[C@@H](CCC(=O)O)C(=O)O)C(=O)O)n3)cc2)CCN(CC(=O)[O-])CC1.[227Th+4] [Example 28-B-227Th, [^227Th]Thorium (4S,11S,15S)-4-[(naphthalen-2-yl)methyl]-2,5,13-trioxo-1-{3-[4-(2-{4,7,10-tris[(carboxy-kappaO)methyl]-1,4,7,10-tetraazacyclododecan-1-yl-kappa^4N^1,N^4,N^7,N^10}acetamido)phenyl]-1H-pyrazol-1-yl}-3,6,12,14-tetraazaheptadecane-11,15,17-tricarboxylate]
Proliferation assay on cancer cell lines by TTCs Default Pivot #3 IC50 [kBq/mL] VCap 4000cells 375kBq/nmol (mean) [1]: 4.77 kBq/mL
Proliferation assay on cancer cell lines by TTCs Default Pivot #3 IC50 [kBq/mL] C4-2 1000cells 375kBq/nmol (mean) [2]: 2.22 kBq/mL
Proliferation assay on cancer cell lines by TTCs Default Pivot #3 IC50 [kBq/mL] 22Rv1 1000cells 375kBq/nmol (mean) [3]: 1.22 kBq/mL

[^227Th]Thorium-{N^6-[3-(quinolin-2-yl)-N-{(1r,4S)-4-[(2-{4,7,10-tris[(carboxy-kappaO)methyl]-1,4,7,10-tetraazacyclododecan-1-yl-kappa^4N^1,N^4,N^7,N^10}acetamido)methyl]cyclohexane-1-carbonyl}-L-alanyl]-N^2-{[(1S)-1,3-dicarboxypropyl]carbamoyl}-L-lysinate} [Example 17-B-227Th]
Proliferation assay on cancer cell lines by TTCs Default Pivot #3 IC50 [kBq/mL] VCap 4000cells 375kBq/nmol (mean) [1]: 0.73 kBq/mL
Proliferation assay on cancer cell lines by TTCs Default Pivot #3 IC50 [kBq/mL] C4-2 1000cells 375kBq/nmol (mean) [2]: 0.15 kBq/mL
Proliferation assay on cancer cell lines by TTCs Default Pivot #3 IC50 [kBq/mL] 22Rv1 1000cells 375kBq/nmol (mean) [3]: 0.8 kBq/mL
